# What was measured:
# P388 leukemia = test: Antitumor studies against P388 leukemia in mice (median survival time, T/c); type: in vivo, CDF1 mice; details: 24 hours after i.p. implant of 1x10^6 P388 cells, Treated/Control x 100
# Protocol: To investigate the therapeutic effectiveness of doxorubicin and daunorubicin entrapped in liposomes, antitumor studies were performed against P388 leukemia in CDF1 mice. Groups of ten mice were implanted intraperitoneally with lxl0^6 cells of P388 tumor, and drug treatment was initiated on day one intraperitoneally or intravenously after tumor cell inoculation. Antitumor efficacy was expressed in leukemic animals by the increase in median survival time, in the dose-range used, compared to controls. Dead animals were autopsied and toxicity was established on the basis of macroscopic necropsy findings.
# [1] = Percentage of entrapment of drugs in liposomes, determined by fluorescence after dialysis; type: physicochemical; details: liposomes of cardiolipin, phosphatidyl choline, cholesterol, stearylamine-DTPA
# Protocol: For the preparation of liposomes, 6 mg of doxorubicin or daunorubicin was added to 9 mg of cardiolipin solution and evaporated to dryness under N2. To this dried mixture were then added 22.5 mg of phosphatidyl choline, 7.5 mg cholesterol and 3 mg of stearylamine-DTPA. Again, the mixture was evaporated to dryness under N2.
# The dried lipids and doxorubicin or daunorubicin were resuspended in 6 ml of 0.01 M phosphate buffer with 0.85% NaCl, pH 7.4 (PBS). After one-half-hour swelling time, the liposomes were stirred for 15 minutes, followed by sonication (Heat System, Model W-220F) in a fixed temperature bath at 37°C for 90 minutes. The non-entrapped doxorubicin or daunorubicin was separated from liposome-encapsulated drug by extensive dialysis against 0.001 M phosphate buffer with 0.85% NaCl, pH 7.4 at 4°C over a period of 20 hours with at least two changes of buffer solutions (250 ml/ml liposomes). […] The difference in encapsulation of these two drugs relates to their lipophilicity; daunorubicin is more lipophilic than doxorubicin. The liposomes were freshly prepared each day and were diluted with 0.01 M phosphate buffer (PBS) so as to administer doses of doxorubicin or daunorubicin equivalent to doses of free drugs for pharmacological, toxicological and therapeutic studies.
# [2] = Plasma levels in mice after i.v. administration of free or liposome-entrapped drug; details: 6 mg/kg i.v.
# Protocol: (§1) Male CDF1 mice weighing 20-25 g were used to evaluate the influence of liposome encapsulation on plasma levels and physiological disposition of daunorubicin and doxorubicin. Free or encapsulated daunorubicin or doxorubicin was administered intravenously via a lateral tail vein at a dose of 6 mg/kg at 2% body weight (0.02 ml/gm). At 5, 15, 30, 60, 120, 240, and 480 minutes and at 24 hours, mice in each group were bled from the orbital sinus. Blood was collected in heparinized tubes and centrifuged at 1500 rpm for 10 minutes. The plasma layer was separated and frozen. Mice were then killed by cervical dislocation, and the liver, kidney, heart, spleen, small intestine and lungs were excised, rinsed in normal saline, and stored at -20°C until assayed.
# (§2) Plasma and tissues were analyzed for drug equivalents by the method of Formelli et al. (Cancer Chemotherapy and Pharmacology, 5, 129-144 (1981)) as modified in the inventor's laboratories. Plasma (0.25 ml) was diluted to 1 ml with distilled water, followed by addition of 0.2 ml of AgN03 (33% wt/vol). Tissues were homogenized in 1 ml of water in a polytron homogenizer. […] The butanol extract was read in a spectrofluorometer at 470 nm excitation and 585 nm emission. Control plasma and tissues obtained from mice treated with blank liposomes were treated the same way and read in the fluorometer to correct for any endogenous fluorescence. […]
# [3] = Lethal toxicity in normal mice; type: in vivo; details: 20 mg/kg intraperitoneally, normal CDF1 mice, by day 10
# Protocol: For comparison of lethal toxicity of free doxorubicin and doxorubicin entrapped in liposomes, normal CDF1 mice were administered a dose of 20 mg/kg intraperitonally. The mice were observed until day 80 post-drug administration. The control mice received blank liposomes representing the same concentration of the lipid used to entrap a dose of 20 mg/kg of doxorubicin. Mice in each group were weighed twice weekly and were observed daily.
# [4] = Tissue disposition (heart, liver, spleen, lungs, kidney, intestine) in mice after i.v. administration; details: doxorubicin 6 mg/kg i.v., CDF1 mice; at 15 minutes
# Protocol: as §1, §2
Compound,T/c (%) (P388 leukemia; 2 mg/kg i.p.),T/c (%) (P388 leukemia; 4 mg/kg i.p.),T/c (%) (P388 leukemia; 6 mg/kg i.p.),"T/c (%) (P388 leukemia; 6 mg/kg i.p., listed as daunorubicin)",T/c (%) (P388 leukemia; 15 mg/kg l.v),T/c (%) (P388 leukemia; 20 mg/kg i.v.),efficiency of entrapment in liposomes [1],peak plasma concentration (doxorubicin) [2] [µg/mL],T/c (%) (P388 leukemia; 15 mg/kg i.p.),T/c (%) (P388 leukemia; 20 mg/kg i.p.),mortality [3] [%],peak drug concentration in the kidney [4] [µg/gm]
"COc1cccc2c1C(=O)c1c(O)c3c(c(O)c1C2=O)C[C@@](O)(C(C)=O)C[C@@H]3O[C@H]1C[C@H](N)[C@H](O)[C@H](C)O1 [Free Daunorubicin, daunorubicin]",145.5,136.4,109.1,109,145.5,154.5,75-85%,,,,,
"COc1cccc2c1C(=O)c1c(O)c3c(c(O)c1C2=O)C[C@@](O)(C(=O)CO)C[C@@H]3O[C@H]1C[C@H](N)[C@H](O)[C@H](C)O1 [Free Doxorubicin, doxorubicin]",,,,,,,65-75%,2.4,130,100,100,41.0

# Reference: patent publication EP0198765A2, “Preparation of liposomes” (GEORGETOWN UNIVERSITY, priority 1985, dated 1986)
